Experimental data from PubChem BioAssay AID248 (DTP/NCI, 2004).
Toxic doses and inconclusive results are not listed.

Tested on: L1210 leukemia ip in BDF1 mice, survival T/C
Assay: NCI In Vivo Anticancer Drug Screen. Data for tumor model L1210 Leukemia (intraperitoneal) in B6D2F1 (BDF1) mice
Conditions: endpoint: mean survival time, higher = longer survival
Outline: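 Survival endpoint. Drug-treated group vs vehicle group, expressed as T divided by C. Tumor passaged by transplantation.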

[1] = dose: 100.0 mg/kg/injection, schedule: Q01DX009 (ip), vehicle: Klucel (hydroxypropylcellulose) (HPC)
[2] = dose: 200.0 mg/kg/injection, schedule: Q01DX009 (ip), vehicle: Klucel (hydroxypropylcellulose) (HPC)
[3] = dose: 100.0 mg/kg/injection, schedule: Q04DX003 (ip), vehicle: Klucel (hydroxypropylcellulose) (HPC)

CC1OCC(C)C(C)(C)O1 (stereo not drawn) was tested, and the T/C (dose: 50.0 mg/kg/injection, schedule: Q01DX009 (ip), vehicle: acetone) was 100 % of control, the T/C (dose: 100.0 mg/kg/injection, schedule: Q01DX009 (ip), vehicle: acetone) was 90 % of control and the T/C (dose: 100.0 mg/kg/injection, schedule: Q04DX003 (ip), vehicle: acetone) was 112 % of control. For the same compound, the T/C (dose: 200.0 mg/kg/injection, schedule: Q01DX009 (ip), vehicle: acetone) was 89 % of control, the T/C (dose: 200.0 mg/kg/injection, schedule: Q04DX003 (ip), vehicle: acetone) was 108 % of control and the T/C (dose: 400.0 mg/kg/injection, schedule: Q04DX003 (ip), vehicle: acetone) was 103 % of control.
For CNC(=O)Nc1cc(OC)ccc1OC, the T/C [1] was 106 % of control, the T/C [2] was 98 % of control and the T/C (dose: 400.0 mg/kg/injection, schedule: Q01DX009 (ip), vehicle: Klucel (hydroxypropylcellulose) (HPC)) was 107 % of control.
With COc1cc2ccc3c(c2cc1OC)CNCC3 the T/C (dose: 50.0 mg/kg/injection, schedule: Q01DX009 (ip), vehicle: saline) was 104 % of control, the T/C (dose: 100.0 mg/kg/injection, schedule: Q01DX009 (ip), vehicle: saline) was 104 % of control and the T/C (dose: 100.0 mg/kg/injection, schedule: Q04DX003 (ip), vehicle: saline) was 116 % of control. The T/C (dose: 200.0 mg/kg/injection, schedule: Q01DX009 (ip), vehicle: saline) was 88 % of control and the T/C (dose: 200.0 mg/kg/injection, schedule: Q04DX003 (ip), vehicle: saline) was 102 % of control.
NC(N)=N/N=C\CC(O)CO (stereo not drawn) was tested, and the T/C (dose: 15.0 mg/kg/injection, schedule: Q01DX Z (ip), vehicle: methylcellulose (MC)) was 100 % of control, the T/C (dose: 30.0 mg/kg/injection, schedule: Q01DX Z (ip), vehicle: methylcellulose (MC)) was 103 % of control and the T/C (dose: 60.0 mg/kg/injection, schedule: Q01DX Z (ip), vehicle: methylcellulose (MC)) was 100 % of control. The T/C (dose: 60.0 mg/kg/injection, schedule: Q01DX Z (oral), vehicle: methylcellulose (MC)) was 97 % of control, the T/C (dose: 120.0 mg/kg/injection, schedule: Q01DX Z (ip), vehicle: methylcellulose (MC)) was 103 % of control and the T/C (dose: 120.0 mg/kg/injection, schedule: Q01DX Z (oral), vehicle: methylcellulose (MC)) was 94 % of control. For the same compound, the T/C (dose: 240.0 mg/kg/injection, schedule: Q01DX Z (oral), vehicle: methylcellulose (MC)) was 88 % of control and the T/C (dose: 480.0 mg/kg/injection, schedule: Q01DX Z (oral), vehicle: methylcellulose (MC)) was 86 % of control.
In the case of CCCCCCCCO/N=C\c1c2c(O)c3c(O)c(C)c4c(c3c1O)C(=O)C(C)(O/C=C\C(OC)C(C)C(OC(C)=O)C(C)C(O)C(C)C(O)C(C)/C=C\C=C(\C)C(=O)N2)O4 (stereo not drawn), the T/C (dose: 50.0 mg/kg/injection, schedule: Q04DX003 (ip), vehicle: water) is reported as 96 % of control, the T/C [1] is reported as 106 % of control and the T/C (dose: 100.0 mg/kg/injection, schedule: Q04DX003 (ip), vehicle: water) is reported as 100 % of control. The T/C [2] was 89 % of control, the T/C (dose: 200.0 mg/kg/injection, schedule: Q04DX003 (ip), vehicle: water) was 98 % of control and the T/C (dose: 400.0 mg/kg/injection, schedule: Q04DX003 (ip), vehicle: water) was 104 % of control.
CS(=O)(=O)OCCN(CCOS(C)(=O)=O)c1ccc(N=O)cc1 was tested, and the T/C (dose: 0.08 mg/kg/injection, schedule: Q01DX Z (ip), vehicle: carboxymethylcellulose (CMC)) was 115 % of control, the T/C (dose: 0.08 mg/kg/injection, schedule: Q01DX Z (ip), vehicle: saline) was 117 % of control and the T/C (dose: 0.16 mg/kg/injection, schedule: Q01DX Z (ip), vehicle: carboxymethylcellulose (CMC)) was 123 % of control. For the same compound, the T/C (dose: 0.16 mg/kg/injection, schedule: Q01DX Z (ip), vehicle: saline) was 122 % of control, the T/C (dose: 0.63 mg/kg/injection, schedule: Q01DX Z (ip), vehicle: saline) was 120 % of control and the T/C (dose: 1.25 mg/kg/injection, schedule: Q01DX Z (ip), vehicle: saline) was 110 % of control. For the same compound, the T/C (dose: 1.28 mg/kg/injection, schedule: Q01DX Z (ip), vehicle: carboxymethylcellulose (CMC)) was 103 % of control, the T/C (dose: 2.0 mg/kg/injection, schedule: Q01DX001 (ip), vehicle: saline) was 120 % of control and the T/C (dose: 4.0 mg/kg/injection, schedule: Q01DX001 (ip), vehicle: saline) was 121 % of control.
Cc1cc(=O)c2c(C)ccc(C)c2[nH]1 was tested, and the T/C (dose: 100.0 mg/kg/injection, schedule: Q01DX001 (ip), vehicle: other) was 95 % of control, the T/C (dose: 200.0 mg/kg/injection, schedule: Q01DX001 (ip), vehicle: other) was 91 % of control and the T/C (dose: 400.0 mg/kg/injection, schedule: Q01DX001 (ip), vehicle: other) was 98 % of control.
With CCCCCCCCCCCCCCCC(=O)c1ccccc1 the T/C (dose: 100.0 mg/kg/injection, schedule: Q01DX001 (ip), vehicle: Klucel (hydroxypropylcellulose) (HPC)) was 106 % of control, the T/C (dose: 200.0 mg/kg/injection, schedule: Q01DX001 (ip), vehicle: Klucel (hydroxypropylcellulose) (HPC)) was 103 % of control and the T/C (dose: 400.0 mg/kg/injection, schedule: Q01DX001 (ip), vehicle: Klucel (hydroxypropylcellulose) (HPC)) was 88 % of control.
Cc1cc(O)c(C(C)C)cc1NC(=O)C(Cl)Cl was tested, and the T/C [3] was 98 % of control, the T/C (dose: 200.0 mg/kg/injection, schedule: Q04DX003 (ip), vehicle: Klucel (hydroxypropylcellulose) (HPC)) was 101 % of control and the T/C (dose: 400.0 mg/kg/injection, schedule: Q04DX003 (ip), vehicle: Klucel (hydroxypropylcellulose) (HPC)) was 107 % of control.
CC(=O)Nc1cc(C(=O)Nc2ccc(C3=NCCN3)cc2)ccc1C(=O)Nc1ccc(C2=NCCN2)cc1 was tested, and the T/C (dose: 7.5 mg/kg/injection, schedule: Q01DX Z (oral), vehicle: saline) was 103 % of control, the T/C (dose: 15.0 mg/kg/injection, schedule: Q01DX Z (ip), vehicle: saline) was 271 % of control and the T/C (dose: 15.0 mg/kg/injection, schedule: Q01DX Z (oral), vehicle: saline) was 105 % of control. For the same compound, the T/C (dose: 30.0 mg/kg/injection, schedule: Q01DX Z (oral), vehicle: saline) was 104 % of control, the T/C (dose: 60.0 mg/kg/injection, schedule: Q01DX Z (oral), vehicle: saline) was 105 % of control and the T/C (dose: 62.5 mg/kg/injection, schedule: Q## X009 (oral), vehicle: saline) was 97 % of control. For the same compound, the T/C (dose: 75.0 mg/kg/injection, schedule: Q01DX Z (oral), vehicle: saline) was 90 % of control, the T/C (dose: 125.0 mg/kg/injection, schedule: Q## X009 (oral), vehicle: saline) was 97 % of control and the T/C (dose: 150.0 mg/kg/injection, schedule: Q01DX Z (oral), vehicle: saline) was 86 % of control. The T/C (dose: 500.0 mg/kg/injection, schedule: Q## X009 (oral), vehicle: saline) was 101 % of control.
In the case of O=Cc1c(Cl)n(-c2ccccc2)c2c(C=O)cccc12, the T/C (dose: 25.0 mg/kg/injection, schedule: Q04DX003 (ip), vehicle: Klucel (hydroxypropylcellulose) (HPC)) is reported as 97 % of control, the T/C (dose: 50.0 mg/kg/injection, schedule: Q04DX003 (ip), vehicle: Klucel (hydroxypropylcellulose) (HPC)) is reported as 100 % of control and the T/C [3] is reported as 97 % of control.
With Nc1ccc2cc3ccccc3cc2c1 the T/C (dose: 12.5 mg/kg/injection, schedule: Q01DX015 (ip), vehicle: saline) was 104 % of control, the T/C (dose: 25.0 mg/kg/injection, schedule: Q01DX015 (ip), vehicle: saline) was 95 % of control and the T/C (dose: 50.0 mg/kg/injection, schedule: Q01DX015 (ip), vehicle: saline) was 95 % of control. For the same compound, the T/C (dose: 100.0 mg/kg/injection, schedule: Q01DX015 (ip), vehicle: saline) was 97 % of control.
